This note sets out measurements from ChEMBL document CHEMBL1150522, “Preparation and antifungal activity of fusacandin analogs: C-6 sidechain esters” (1996).

Converted amounts (≈) assume the structure as drawn.

Common to all, as to format: functional
Test [1] deals with Candida albicans. Briefly: Minimum inhibitory concentration against Candida albicans (ATCC 62376) in the absence of serum.
Test [2] relates to Candida albicans. Nature of the test: Minimum inhibitory concentration against Candida albicans (CCH 442) in the absence of serum.
In test [3] the test system is Candida albicans. Briefly: Minimum inhibitory concentration against Candida albicans (ATCC 38247) in the absence of serum.
For test [4], the system named is Candida albicans. Briefly: Minimum inhibitory concentration against Candida albicans (579a) in the absence of serum.
Test [5] concerns Candida albicans. Nature of the test: Minimum inhibitory concentration against Candida albicans (579a) in the presence of serum.
Test [6] relates to Candida albicans. Briefly: Minimum inhibitory concentration against Candida albicans (ATCC 62376) in the presence of serum.
In test [7] the test system is Candida albicans. Nature of the test: Minimum inhibitory concentration against Candida albicans (ATCC 10231) in the absence of serum.
Test [8] deals with Candida albicans. Nature of the test: Minimum inhibitory concentration against Candida albicans (ATCC 10231) in the presence of serum.
The subject of test [9] is Candida albicans. Nature of the test: Minimum inhibitory concentration against Candida albicans (CCH 442) in the presence of serum.
The test system of test [10] is Candida albicans. Nature of the test: Minimum inhibitory concentration against Candida albicans (ATCC 38247) in the presence of serum.

Take `CCCCC/C=C/C=C/[C@@H](O)C/C=C/C=C/C(=O)O[C@@H]1[C@@H](O)[C@H](c2c(O)cc(O)cc2CO)O[C@H](CO)[C@H]1O[C@@H]1O[C@H](COC(=O)c2ccc(-c3ccc(OCCC)cc3)cc2)[C@H](O)[C@H](O)[C@H]1O[C@@H]1O[C@H](CO)[C@H](O)[C@H](O)[C@H]1O`: the MIC against Candida albicans [1] was found to be 12.5 µg/mL (≈ 11.2 µM); against Candida albicans [2], 6.25 µg/mL (≈ 5.62 µM); against Candida albicans [3], 25 µg/mL (≈ 22.5 µM); in the test on Candida albicans [4], 25 µg/mL (≈ 22.5 µM); in the test on Candida albicans [5], 0.78 µg/mL; in the test on Candida albicans [6], 0.78 µg/mL. Further, the MIC in the test with Candida albicans [7] worked out at 12.5 µg/mL (≈ 11.2 µM); with Candida albicans [8], 0.78 µg/mL; with Candida albicans [9], 0.78 µg/mL; in the test on Candida albicans [10], 0.78 µg/mL.
As to `CCCCC/C=C/C=C/[C@@H](O)C/C=C/C=C/C(=O)O[C@@H]1[C@@H](O)[C@H](c2c(O)cc(O)cc2CO)O[C@H](CO)[C@H]1O[C@@H]1O[C@H](COC(=O)c2ccc(-c3ccc(O)cc3)cc2)[C@H](O)[C@H](O)[C@H]1O[C@@H]1O[C@H](CO)[C@H](O)[C@H](O)[C@H]1O`, the MIC against Candida albicans [1] is over 100 µg/mL; in the test on Candida albicans [2] it was over 100 µg/mL; in the test with Candida albicans [3], over 100 µg/mL; with Candida albicans [4] it was over 100 µg/mL; in the test with Candida albicans [5], 6.25 µg/mL; in the test with Candida albicans [6], 12.5 µg/mL. For the same molecule, the minimum inhibitory concentration (MIC) against Candida albicans [7] is over 100 µg/mL; in the test with Candida albicans [8], 12.5 µg/mL; with Candida albicans [9], 6.25 µg/mL; in the test on Candida albicans [10], 6.25 µg/mL.
As to `CCCCC/C=C/C=C/[C@@H](O)C/C=C/C=C/C(=O)O[C@@H]1[C@@H](O)[C@H](c2c(O)cc(O)cc2CO)O[C@H](CO)[C@H]1O[C@@H]1O[C@H](COC(=O)/C=C/C=C/CCCCCC)[C@H](O)[C@H](O)[C@H]1O[C@@H]1O[C@H](CO)[C@H](O)[C@H](O)[C@H]1O`, the minimal inhibitory concentration (MIC) was over 100 µg/mL in the test on Candida albicans [1]; over 100 µg/mL with Candida albicans [2]; over 100 µg/mL against Candida albicans [3]; over 100 µg/mL in the test with Candida albicans [4]; 0.78 µg/mL in the test on Candida albicans [5]; 3.12 µg/mL in the test with Candida albicans [6]. Moreover, the MIC against Candida albicans [7] was over 100 µg/mL; in the test with Candida albicans [8] it was 1.56 µg/mL; in the test with Candida albicans [9], 1.56 µg/mL; in the test on Candida albicans [10] it was 1.56 µg/mL.
`CCC(O)/C=C/C=C\C=C\C(=O)OC[C@H]1O[C@@H](O[C@H]2[C@H](OC(=O)/C=C/C=C/C[C@H](O)/C(C)=C/C=C/CCC(C)CC)[C@@H](O)[C@@]3(OCc4cc(O)cc(O)c43)O[C@@H]2CO)[C@H](O)[C@@H](O)[C@H]1O` (stereo not given in full): the MIC in the test on Candida albicans [1] is over 100 µg/mL; with Candida albicans [2] it was over 100 µg/mL; in the test on Candida albicans [3] it was over 100 µg/mL; against Candida albicans [4], over 100 µg/mL; in the test on Candida albicans [5] it was 0.78 µg/mL; in the test on Candida albicans [6] it was 0.39 µg/mL. Moreover, the MIC against Candida albicans [7] was over 100 µg/mL; with Candida albicans [8] it was 0.2 µg/mL; with Candida albicans [9], 0.78 µg/mL; with Candida albicans [10], 0.39 µg/mL.
For `CCCCC/C=C/C=C/[C@@H](O)C/C=C/C=C/C(=O)O[C@@H]1[C@@H](O)[C@H](c2c(O)cc(O)cc2CO)O[C@H](CO)[C@H]1O[C@@H]1O[C@H](COC(=O)c2ccc(-c3ccccc3OC)cc2)[C@H](O)[C@H](O)[C@H]1O[C@@H]1O[C@H](CO)[C@H](O)[C@H](O)[C@H]1O`, the MIC came out at 50 µg/mL (≈ 46.2 µM) against Candida albicans [1]; 50 µg/mL (≈ 46.2 µM) with Candida albicans [2]; 100 µg/mL (≈ 92.3 µM) with Candida albicans [3]; 50 µg/mL (≈ 46.2 µM) in the test on Candida albicans [4]; 1.56 µg/mL with Candida albicans [5]; 1.56 µg/mL in the test with Candida albicans [6]. Moreover, the MIC worked out at 50 µg/mL (≈ 46.2 µM) in the test with Candida albicans [7], 6.25 µg/mL in the test on Candida albicans [8], 6.25 µg/mL with Candida albicans [9] and 6.25 µg/mL with Candida albicans [10].
Consider `CCCCC/C=C/C=C/[C@@H](O)C/C=C/C=C/C(=O)O[C@@H]1[C@@H](O)[C@H](c2c(O)cc(O)cc2CO)O[C@H](CO)[C@H]1O[C@@H]1O[C@H](COC(=O)c2ccc3c(c2)-c2ccccc2-3)[C@H](O)[C@H](O)[C@H]1O[C@@H]1O[C@H](CO)[C@H](O)[C@H](O)[C@H]1O`, for which the minimal inhibitory concentration (MIC) against Candida albicans [1] was found to be 25 µg/mL (≈ 23.8 µM); with Candida albicans [2], 25 µg/mL (≈ 23.8 µM); against Candida albicans [3], 25 µg/mL (≈ 23.8 µM); with Candida albicans [4], 25 µg/mL (≈ 23.8 µM); with Candida albicans [5] it was 0.39 µg/mL; in the test with Candida albicans [6], 1.56 µg/mL. Besides, the minimal inhibitory concentration (MIC) against Candida albicans [7] came to 25 µg/mL (≈ 23.8 µM); in the test with Candida albicans [8], 1.56 µg/mL; in the test with Candida albicans [9], 0.39 µg/mL; with Candida albicans [10], 0.78 µg/mL.
Regarding `CCCCC/C=C/C=C/[C@@H](O)C/C=C/C=C/C(=O)O[C@@H]1[C@@H](O)[C@H](c2c(O)cc(O)cc2CO)O[C@H](CO)[C@H]1O[C@@H]1O[C@H](COC(=O)c2ccc3ccccc3c2)[C@H](O)[C@H](O)[C@H]1O[C@@H]1O[C@H](CO)[C@H](O)[C@H](O)[C@H]1O`, the minimal inhibitory concentration (MIC) is 25 µg/mL (≈ 24.3 µM) with Candida albicans [1]; 50 µg/mL (≈ 48.7 µM) in the test with Candida albicans [2]; over 100 µg/mL in the test on Candida albicans [3]; 50 µg/mL (≈ 48.7 µM) with Candida albicans [4]; 0.78 µg/mL in the test on Candida albicans [5]; 3.12 µg/mL in the test on Candida albicans [6]. Also, the minimal inhibitory concentration (MIC) in the test on Candida albicans [7] came out at 50 µg/mL (≈ 48.7 µM); with Candida albicans [8], 3.12 µg/mL; with Candida albicans [9], 1.56 µg/mL; in the test on Candida albicans [10] it was 0.78 µg/mL.
Regarding `CCCCC/C=C/C=C/[C@@H](O)C/C=C/C=C/C(=O)O[C@@H]1[C@@H](O)[C@H](c2c(O)cc(O)cc2CO)O[C@H](CO)[C@H]1O[C@@H]1O[C@H](COC(=O)c2ccc(-c3ccc(OCCCCCCCC)cc3)cc2)[C@H](O)[C@H](O)[C@H]1O[C@@H]1O[C@H](CO)[C@H](O)[C@H](O)[C@H]1O`, the MIC was 100 µg/mL (≈ 84.7 µM) against Candida albicans [1]; 100 µg/mL (≈ 84.7 µM) in the test on Candida albicans [2]; over 100 µg/mL in the test with Candida albicans [3]; 100 µg/mL (≈ 84.7 µM) in the test on Candida albicans [4]; 25 µg/mL in the test on Candida albicans [5]; 12.5 µg/mL in the test on Candida albicans [6]. In addition, the MIC in the test with Candida albicans [7] was 100 µg/mL (≈ 84.7 µM); with Candida albicans [8], 25 µg/mL; with Candida albicans [9], 25 µg/mL; in the test on Candida albicans [10], 50 µg/mL.
